Measured values reported in patent US20240207265A1, “TREATMENT OF CNS DISEASES WITH sGC STIMULATORS” (Tisento Therapeutics Inc., priority 2021, published 2024).

Key:
[1] = tested on: MK-801-induced memory deficit; test: Novel Object Recognition (NOR) test, MK-801-induced memory disruption; format: in vivo, rat; conditions: for side effects in NOR study: any dose tested, oral, Long Evans rats; for Recognition Index vs Vehicle-MK-801 group: 1 mg/kg PO 60 min prior to training, MK-801 0.1 mg/kg
Method: In the present study, a memory saving model was used. MK-801 (Dizocilpine), an uncompetitive antagonist of the NMDA receptor was used to cause deficit of recognition memory. sGC stimulators were evaluated for their efficacy to prevent memory impairment induced by MK-801.
Adult male Long-Evans rats (275-299 gram at arrival from Envigo, Indianapolis, IN) were used in this study. Rats were placed in the experimental rooms and assigned unique identification numbers (tail marks). Rats were housed 2 per cage in polycarbonate cages with filter tops and acclimated for at least 7 days prior to testing. Animal room was maintained in a 12/12 h light/dark cycle (lights on at 07.00 EST), 22±1° C. and relative humidity at approximately 50%. Food and water were provided ad libitum. All animals were examined, handled and weighed prior to the study to assure adequate health and to minimize the non-specific stress associated with testing. Each animal was randomly assigned across the treatment groups. The experiments were conducted during the animal's light cycle phase.
MK-801 (0.1 mg/kg; Sigma-Aldrich) was dissolved in saline and injected IP, 15 min prior to NOR training. The dose volume was 1 ml/kg.
Galantamine (1 mg/kg; Tocris) was dissolved in saline and injected IP, 15 minutes prior to training. The dose volume was 1 ml/kg.
Compound I-20 (0.03, 0.3 and 1 mg/kg) was formulated in vehicle (0.5% (w/w) methyl cellulose and 0.5% (w/w) Tween 80 in ultrapure water) and orally dosed 60 min prior to NOR training at 2 ml/kg dose volume.
Compound I-14 (0.01, 0.1 and 1 mg/kg) was formulated as its Na+ salt as a solution in MilliQ water and stored as frozen aliquots. The aliquots of compound solutions and compound vehicle were stored in −80° C. and freshly thawed on each testing day. The compound and vehicle were orally dosed 60 minutes prior to NOR training. The dose volume was 10 ml/kg.
NOR test was conducted in an open-field arena (40×40 cm) placed in a sound-attenuated room under dimmed lighting. Each rat was tested separately, and care was taken to remove olfactory/taste cues by cleaning the arena and test objects with 70% alcohol between trials and rats. All training and testing trials were video-taped and scored by an observer blind to treatments.
On Days 1 and 2, rats were allowed to freely explore the arena (no objects inside) for a 5-minute habituation period. On Day 3 (training and testing day), rats were administered vehicle, saline and/or compound solution according to corresponding pretreatment, which is defined as time between injection and start of NOR training. Each animal was placed into the test arena in the presence of two identical objects. Each rat was placed in the arena facing the same direction at the same position, and the time spent actively exploring the objects during a 3-minute training period (T1) was recorded. The rat was returned to its home cage following training. NOR test (T2) was conducted 1 hour after T1. Each rat was placed back into the test arena in the presence of one familiar object and one novel object for 5 minutes, and the time spent exploring both objects was recorded. […]
Data of NOR test (T2) were expressed as Recognition Index, which is defined as the ratio of the time spent exploring the novel object over the total time spent exploring both objects (Novel/(Familiar+Novel)×100%) during the test session.
For Compound I-14, data were analyzed in two batches separately. […] Data were analyzed with t-test to evaluate the validity of the test. […]

[2] = tested on: cAMP response element-binding protein (CREB); test: sGC stimulator induced phosphorylation of CREB in rat primary neurons; format: cell-based; conditions: Primary neuron, 10 μM DETA-NONOate, free acid, geometrical mean, read-out: pCREB EC50
Method: Neurons were isolated from Sprague Dawley rat embryos on embryonic day 18 (E18). Approximately 10 embryos were obtained from each rat, and whole brains were isolated from the embryos. Hippocampus and cortex were dissected from the brains under a stereoscopic microscope using two fine tweezers. The meninges were carefully removed. After dissection, the tissues were chopped and washed gently once with 10 mL of Ca^2+ and Mg^2+ free Hank's balanced salt solution (HBSS, Corning cat #21-022-CM) in a 15-mL conical tube. After washing, 5 mL of a solution of 0.25% trypsin (Invitrogen cat #15090-046) and 0.1% deoxyribonuclease I (DNase I, Sigma cat #DN-25) were added to the tissues, then incubated at 37° C. for 15 min. Next, tissues were washed 3 times with ice-cold HBSS, 3 mL of a solution of 0.1% of DNase I was added, then tissues were slowly pipetted 12 times using a glass Pasteur pipette, followed by centrifugation at 500×g for 10 min. […]
For each test concentration, the compound was diluted in 100% DMSO to 100× its final assay concentration. […] Medium was removed, cells were lysed and levels of pCREB was determined according to Cisbio protocols (phospho-CREB (Ser133) catalog #64CREPEG). Plates were read using Envision instrument (PerkinElmer).
pCREB was determined for each well and analyzed with a […] (log(agonist) vs. response-variable slope) using GraphPad Prism Software v.8. […]

| SMILES | side effects in NOR study [1] | EC50 [2] | Recognition Index vs Vehicle-MK-801 group ([1]; 0-1 minute time range) | Recognition Index vs Vehicle-MK-801 group ([1]; 0-3 minute time range) | Recognition Index vs Vehicle-MK-801 group ([1]; 0-5 minute time range) |
| --- | --- | --- | --- | --- | --- |
| Oc1nc(-c2cn3ccnc3c(Cc3cc(F)ccc3F)n2)ncc1F [Compound I-20, 5-fluoro-2-(8-(2,5-difluorobenzyl)imidazo[1,2-a]pyrazin-6-yl)pyrimidin-4-ol] | None of the rats in this study showed obvious side effects at any dose | 13 nM |  |  |  |
| Cc1cc(F)c(Cc2nc(-c3ncc(F)c(O)n3)cn3ccnc23)cc1F [Compound I-14, 5-fluoro-2-(8-(2,5-difluoro-4-methylbenzyl)imidazo[1,2-a]pyrazin-6-yl)pyrimidin-4-ol] | None of the rats in this study showed obvious side effects at any dose | 21 nM | reversed the deficit | trend (P<0.10) in reversing MK-801-induced memory deficit | significantly higher Recognition Index |
